From publication PMC9929129, “Towards Translation of PqsR Inverse Agonists: From In Vitro Efficacy Optimization to In Vivo Proof‐of‐Principle” (Advanced Science, 2023)
Entries after “also recorded” stand apart in the source; their conditions may differ. Where two headings read alike, the source gives them in different places.

Columns and labels:
[1] = test system: Pseudomonas aeruginosa strain RP73; assay: Alkylquinolone quantification, strain RP73; format: cell-based; details: RP73, 17 h
Method: re-extracted with 0.2 M HCl and quantified photometrically (520 nm). IC50 values were determined from dose-response curves of compounds using at least six different concentrations and fitting with non-linear regression analysis (OriginPro 2017–2020, Originlab Corporation).
1.2.3 Alkylquinolone quantification
Inhibition of alkylquinolone (AQ) signal molecule biosynthesis of compound 24 was analyzed via LC-ESI-MS/MS. Extracellular concentrations of the AQs PQS (2-heptyl-3-hydroxy-4-quinolone), HHQ (2-heptyl-4-quinolone), HQNO (N-oxo-2-heptyl-4-Hydroxyquinoline), 2-AA (2-aminoacetophenone) were measured from supernatants of cultures incubated with or without compound for 17 h. 5,6,7,8-Tetradeutero-2-heptyl-4(1H)-quinolone (HHQ-d4) was added as internal standard before sample preparation. IC50 values were calculated according to the procedure of the pyocyanin assay (see above). LC-ESI-MS/MS conditions were as follows: Dionex Ultimate 3000 HPLC instrument parameters: Zorbax Eclipse XDB 80 Å C18 5 µm 4.6 x 50 mm (Agilent, Santa Clara, CA, USA); eluent A – H2O with 0.1% trifluoroacetic acid (TFA), 0.1% pentafluoropropionic acid (PFPA), 0.1% heptafluorobutyric acid (HFBA); eluent B – acetonitrile with 0.1% TFA, 0.1% PFPA, 0.1% HFBA; isocratic 50% A; flow – 0.7 mL/min. TSQ Quantum Access Max (Thermo Fisher Scientific, Waltham, MA, USA) instrument parameters: Spray voltage 3500 V, vaporizer temperature 370 °C, sheath gas pressure 35 psi, aux gas pressure 30 psi, capillary temperature 270 °C, collision pressure 1.5 mTorr, positive ionization mode. For AQ analyte reaction monitoring parameters please see Table S1.
Table S1. LC-ESI-MS/MS reaction monitoring parameters of AQ analytes in positive ionization mode. precursor product ion collision tube lens retention ion m/z m/z energy (V) offset (V) time (min)
1.2.4 Biofilm-formation assay […]
(Innvotech, Edmonton, CA). An overnight culture of PA14 was centrifuged (10 min, 5000 x g). The supernatant including extracellular polymers was removed and the pellet washed with 10 mL of LB medium. Centrifugation was repeated, the supernatant discarded, and the pellet resuspended in 5 mL of LB. OD was adjusted to 0.2. The bacteria were further diluted in LB medium, followed by addition of the target compound or DMSO control to give OD 0.1 and 1% DMSO. 150 µL were added to each well of the 96-well plate. The outer wells were used as blanks containing 150 µL of 1% DMSO in LB. Six replicates per sample were distributed evenly across the plate, with every row containing one replicate of each sample. The well plate was covered with the peg lid. One layer of parafilm was wrapped around the biofilm inoculator. The inoculator was incubated at 37 °C, static for 24 h with a beaker of H2O ensuring humidity. […]

P. aeruginosa PAO1 = assay: Biofilm-eradication assay with amikacin; format: cell-based, Pseudomonas aeruginosa; details: 10 × 10^−6 M 24 plus 4 µg/mL amikacin
Method: compound, 150 µL 1% DMSO in LB. The inoculator was wrapped with parafilm again and incubated for another 24 h. After that, the peg lid was transferred for 1 min to a 96-well plate containing 200 µL sterile MΩ in each well, followed by another 96 well plate containing 200 µL LB in each well. The system was sealed with parafilm and sonicated for 15 min in an ultrasonic bath with tray.
Immediately after sonication, 20 µL were removed from each well using a multi-channel pipette and diluted 1:10 (stepwise, until 10-6). After each dilution step, 10 µL were directly transferred to cetrimide agar plates (spot plating) using fresh pipette tips. Agar plates were incubated for 16 h at 37 °C and then used for cell counting. Statistical analysis was performed with GraphPad Prism 8.4.1 (GraphPad Software, San Diego, CA) using one-way ANOVA with Tukey’s multiple comparisons test.
Statistical outliers were determined using the Nalimov test, applying a 95% cut-off.
1.2.5 Biofilm-eradication assay
The assay was carried out as described in section 1.2.4, with the following modifications: In the first incubation step only QSI or DMSO (DMSO control and tobramycin control) were added to the wells at time 0. The well plate used for the second incubation step contained QSI/DMSO as before, in presence/absence of tobramycin/amikacin. […]

[2] = Metabolic stability in mouse liver S9 fractions; format: in vitro ADME; details: liver S9 fraction, read-out: Mouse liver S9 t½
TRPC6 channel = target: T1, TRPC6 channel (Homo sapiens, UniProt Q9Y210); assay: Ion channel profiling at Charles River: TRPC6; format: cell-based; details: expressed in HEK293 cells; read-out: ESTIMATED IC50
T1 construct: host or cells: HEK293 cells
T1 sequence (Q9Y210 whole entry): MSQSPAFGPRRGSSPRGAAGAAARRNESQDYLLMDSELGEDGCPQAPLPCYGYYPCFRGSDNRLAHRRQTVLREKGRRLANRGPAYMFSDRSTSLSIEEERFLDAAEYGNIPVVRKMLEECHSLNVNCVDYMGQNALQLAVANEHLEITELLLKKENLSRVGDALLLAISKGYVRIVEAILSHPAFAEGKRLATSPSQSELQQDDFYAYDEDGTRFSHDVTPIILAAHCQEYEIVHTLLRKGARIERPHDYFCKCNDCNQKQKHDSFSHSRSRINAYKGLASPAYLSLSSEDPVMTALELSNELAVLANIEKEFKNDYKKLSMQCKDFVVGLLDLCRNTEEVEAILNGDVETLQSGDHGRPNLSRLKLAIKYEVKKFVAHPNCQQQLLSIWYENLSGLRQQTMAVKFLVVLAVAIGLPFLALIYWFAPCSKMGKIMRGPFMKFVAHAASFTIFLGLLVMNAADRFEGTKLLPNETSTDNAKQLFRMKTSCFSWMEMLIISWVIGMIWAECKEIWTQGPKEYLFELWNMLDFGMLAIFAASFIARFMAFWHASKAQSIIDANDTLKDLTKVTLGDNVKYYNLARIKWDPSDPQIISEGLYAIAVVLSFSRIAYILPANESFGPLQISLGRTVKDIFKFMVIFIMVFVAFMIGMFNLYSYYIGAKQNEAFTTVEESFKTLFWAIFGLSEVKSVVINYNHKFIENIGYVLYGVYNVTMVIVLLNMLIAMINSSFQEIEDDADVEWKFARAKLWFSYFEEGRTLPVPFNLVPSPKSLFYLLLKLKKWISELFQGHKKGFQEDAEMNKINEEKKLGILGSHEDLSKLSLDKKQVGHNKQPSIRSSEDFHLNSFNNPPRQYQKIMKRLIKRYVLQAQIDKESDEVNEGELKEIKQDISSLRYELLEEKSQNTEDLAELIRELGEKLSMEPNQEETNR
Method: 1.4.3 Ion Channel Profiling at Charles River
Table S9. Compound 24 was tested against the following ion channels at Charles River Laboratories. […]
ScreenPatch Assay Kv1.3 potassium channel (human KCNA3 gene) expressed in CHO […]
FLIPR Assay expressed in HEK293 cells
GABAA α5/β3/γ2 ionotropic receptor (human GABRA5, GABRB3, >30 and GABRG2 genes, expressed in HEK293 cells […]
TRPC6 channel (human TRPC6 gene) expressed in HEK293 cells >30 […]
An increase in the number of colonies of at least two-fold over baseline (mean + SD of the vehicle control) and a dose response indicate a positive response. An […]
different from the vehicle control.
Where indicated, S9 fraction from the livers of Aroclor 1254-treated rats were included in the incubation at a final concentration of 4.5%. A NADPH-regenerating system was also included to ensure a steady supply of reducing equivalents.

[3] = In vivo PK study, IP, SC and PO; details: male, CD-1, mouse, plasma, 20 mg/kg
Method: For pharmacokinetic experiments via the intraperitoneally (IP), subcutaneously (SC) and perorally
(PO) route 4 weeks old outbred male CD-1 mice (Charles River, Netherlands) were used.
were administered 24 at 20 mg/kg intraperitoneally (IP), subcutaneously (SC) and perorally (PO).
About 20 μL of whole blood was collected serially from the lateral tail vein at time points t = 0.25
(only IP and SC), 0.5, 1, 2, 4, and 8 h post administration.
was collected from the heart. Whole blood was collected into Eppendorf tubes coated with 0.5 M EDTA and immediately spun down at 13,000 rpm for 10 min at 4 °C. The plasma was transferred into
a new Eppendorf tube and then stored at −80 °C until analysis.

For `CC(C)Oc1ccc(-c2ncc(CNc3ccnc(C(F)(F)F)c3)cn2)cc1Cl` [Compound 24], the IC50 ([1]; read-out: IC50 RP73, 2‐AA biosynthesis) was 213 nM, the IC50 ([1]; read-out: IC50 RP73, HHQ biosynthesis) was 453 nM and the IC50 ([1]; read-out: IC50 RP73, HQNO biosynthesis) was 230 nM. For the same compound, the IC50 ([1]; read-out: IC50 RP73, PQS biosynthesis) was 160 nM, the “Effect on amikacin activity against PAO1 biofilm” value (P. aeruginosa PAO1) was “significant boost in activity; also recorded: boosted” and the half-life [2] was 0.833 h. For the same compound, the IC50 (TRPC6 channel) was > 30000 nM, the bioavailability ([3]; intraperitoneal) was ~36% and the AUC(0-t) ([3]; ip) was 557 µg·h/mL. For the same compound, the CL/F ([3]; ip) was 1.7 ± 1.8 mL/min/kg, the Cmax ([3]; ip) was 65.8 µg/mL and the Tmax ([3]; ip) was 1 h. The Vd/F ([3]; ip) was 0.25 ± 0.3 L/kg, the bioavailability ([3]; ip) was 36.1% and the half-life ([3]; ip) was 1.68 h. It also gave a CL/F ([3]; po) of 1.58 ± 0.4 mL/min/kg, a Cmax ([3]; po) of 45.6 µg/mL and a Tmax ([3]; po) of 0.83 ± 0.2 h. It also gave a Vd/F ([3]; po) of 0.25 L/kg, a bioavailability ([3]; po) of 13.8% and a half-life ([3]; po) of 1.9 ± 0.5 h. For the same compound, the AUC(0-t) ([3]; sc) was 363 µg·h/mL, the CL/F ([3]; sc) was 0.93 ± 0.1 mL/min/kg and the Tmax ([3]; sc) was 2 h. The Vd/F ([3]; sc) was 0.12 L/kg, the bioavailability ([3]; sc) was 23.5% and the half-life ([3]; sc) was 1.51 h.
